{"source": "patent US20220401509A1", "about": "“Composition For Improving Mental State, Production Method For Composition For Improving Mental State, And Use Of Fruit Of Eggplant For Improving Mental State” (SHINSHU UNIVERSITY, priority 2019, published 2022)", "origin": "cited, not measured here", "key": {"adult individuals": {"system": "adult individuals", "details": "according to the \"Foods with Function Claims\" in Japan"}, "[1]": {"system": "spontaneously hypertensive rats (SHRs)", "details": "purified, single oral dose to SHR"}}, "data": [{"smiles": "O=C(/C=C/c1ccc(O)c(O)c1)O[C@@H]1C[C@](O)(C(=O)O)C[C@@H](O)[C@H]1O", "note": "[CA, chlorogenic acid]", "values": [{"measurement": "effective dose for antihypertensive effect in adult individuals", "setting": "adult individuals", "value": 271, "unit": "mg/day"}]}, {"smiles": "NCCCC(=O)O", "note": "[GABA, γ-aminobutyric acid]", "values": [{"measurement": "effective dose for antihypertensive effect in adult individuals", "setting": "adult individuals", "value": 12.3, "unit": "mg/day"}]}, {"smiles": "CCCC(=O)OCC[N+](C)(C)C", "note": "[butyrylcholine]", "values": [{"measurement": "antihypertensive effect", "setting": "[1]", "value": "had an antihypertensive effect"}]}, {"smiles": "CC(O)C(=O)OCC[N+](C)(C)C.[I-]", "note": "(centres unmarked) [lactoylcholine]", "values": [{"measurement": "antihypertensive effect", "setting": "[1]", "value": "had an antihypertensive effect"}]}, {"smiles": "CCC(=O)OCC[N+](C)(C)C", "note": "[propionylcholine]", "values": [{"measurement": "antihypertensive effect", "setting": "[1]", "value": "had an antihypertensive effect"}]}]}
